Data on 19 molecules can be found in US11414428B2, “Inhibitors of tryptophan dioxygenases (IDO1 and TDO) and their use in therapy” (Auckland UniServices Limited, priority 2015, dated 2022).

One may read the IC50 as the concentration at which inhibition is half-maximal.

SMILES strings stand for the structures. Where only a bound is given, the exact number is not on record here.

Data set [1] addresses Recombinant human IDO1 (rhIDO1) (Homo sapiens (Human), UniProt P14902). Briefly: Enzymatic assay for IDO1 activity. Particulars: rhIDO1 9 nM, 80 μM TRP, 37° C. 30 min. It counts as biochemical. How it is done:
Recombinant human IDO1 (rhIDO1) was expressed and purified from cultures of EC538 strain of E. coli transformed with pREP4 and pQE9-IDO plasmid. Reaction mixes were set up in 384-well microplates containing 50 mM phosphate buffer, 10 mM ascorbic, 10 μM methylene blue, 100 μg/mL catalase, 80 μM TRP, 0.01% Tween 20 (v/v) mixed with rhIDO1 (15 μL) at a final concentration of 9 nM in a total volume of 30 μL assay medium. The plates were incubated at 37° C. for 30 min, and the enzymatic reaction was terminated by adding piperidine (200 mM) and heated at 65° C. for 20 min. Fluorescence intensity was read at λex 400 nm and λem 500 nm. Test compounds were dissolved in 100% DMSO and pre-diluted in assay medium prior to adding rhIDO1. IDO1 inhibition (%) was calculated as
[formula] All experiments were carried out in triplicates, and statistical Analyses were conducted in Prism v5 (Graphpad Software, Inc., La Jolla, Calif., USA). Cell-Based Assay for IDO1 Inhibition

The target of data set [2] is full length human TDO (GL261 cells) (Homo sapiens (Human), UniProt P48775). In words: Cell-based assay for TDO inhibition. Particulars: GL261 cells over-expressing human TDO, 24 h; read-out: Cellular IC50. How it is done: Culture supernatant from each well was then transferred into a fresh, flat-bottomed 96-well plate, and kynurenine content was determined as described above for the IDO1 assay, and the concentration that inhibited 50% cellular enzyme activity was calculated.

A short description of data set [3]: Cell viability (MTT colourimetric assay) in the TDO cell-based assay. As to conditions: mouse, same experiment as cellular TDO assay, read-out: Cell cytotoxicity IC50. On the procedure: The viability of the cells in each well in the same experiment was determined using the 3-(4,5-dimethylthiazolyl-2-yl)-2,5-diphenyltetrazolium bromide ([…]) colourimetric assay.

Data set [4] in a line: Cell viability (MTT colourimetric assay) in the IDO1 cell-based assay. As to conditions: mouse, same experiment as cellular IDO1 assay, read-out: Cell cytotoxicity IC50. How it is done:
The viability of the cells in each well in the same experiment was determined using the 3-(4,5-dimethylthiazolyl-2-yl)-2,5-diphenyltetrazolium bromide ([…]) colourimetric assay. After the removal of the supernatant for determination of IDO1 inhibition, the cells were incubated with MU (500 μg/mL) until crystal formation was observed. Plates were centrifuged for 15 min at 2500 g, and then all the supernatant in then wells was discarded. DMSO (100 μL/well) was added to dissolve the crystals and then the absorbance in each well was measured at 570 nm. Cell viability in each well was expressed as a percentage of untreated controls. Triplicate cultures were used for all experiments unless stated otherwise.
Background: Tetrazolium assays rely on reduction of a dye to a coloured formazan, in cell work by metabolically active cells.

Chain of Recombinant human IDO1 (rhIDO1) (P14902 whole entry): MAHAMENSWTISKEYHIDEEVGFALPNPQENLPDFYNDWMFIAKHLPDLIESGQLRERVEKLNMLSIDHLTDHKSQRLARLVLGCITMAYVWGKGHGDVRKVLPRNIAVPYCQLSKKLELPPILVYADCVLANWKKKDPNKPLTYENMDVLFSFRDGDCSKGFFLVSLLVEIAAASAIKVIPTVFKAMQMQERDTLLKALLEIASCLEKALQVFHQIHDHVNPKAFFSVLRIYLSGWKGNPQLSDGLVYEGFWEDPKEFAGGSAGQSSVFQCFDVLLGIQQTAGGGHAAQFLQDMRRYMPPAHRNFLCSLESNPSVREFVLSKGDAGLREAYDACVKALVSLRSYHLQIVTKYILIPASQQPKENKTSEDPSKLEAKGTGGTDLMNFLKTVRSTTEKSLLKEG
Chain of full length human TDO (GL261 cells) (P48775 whole entry): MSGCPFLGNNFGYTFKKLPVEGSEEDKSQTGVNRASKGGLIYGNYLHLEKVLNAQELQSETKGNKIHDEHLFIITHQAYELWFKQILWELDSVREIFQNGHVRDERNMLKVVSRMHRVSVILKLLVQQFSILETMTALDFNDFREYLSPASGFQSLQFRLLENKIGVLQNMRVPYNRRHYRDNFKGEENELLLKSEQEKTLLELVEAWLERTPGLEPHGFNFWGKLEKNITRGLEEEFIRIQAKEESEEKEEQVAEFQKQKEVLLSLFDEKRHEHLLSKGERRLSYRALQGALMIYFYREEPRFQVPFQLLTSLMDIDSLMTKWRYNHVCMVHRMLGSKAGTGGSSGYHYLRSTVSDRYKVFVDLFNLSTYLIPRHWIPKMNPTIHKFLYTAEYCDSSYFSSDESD

On to `Cc1nc2onc(NC(=O)Oc3ccccc3)c2c(C)c1Cl` [Compound 4, Phenyl (5-chloro-4,6-dimethylisoxazolo[5,4-b]pyridin-3-yl)carbamate], for which the IC50 in data set [1] was 1 to 10 µM; in data set [2], 10 to 100 µM; in data set [3] it was above 100 µM; in data set [4] it was above 100 µM.
Regarding `Cc1nc2onc(NC(=O)Nc3ccccc3Cl)c2c(C)c1Cl` [Compound 6, 1-(5-Chloro-4,6-dimethylisoxazolo[5,4-b]pyridin-3-yl)-3-(2-chlorophenyl)urea], the IC50 in data set [1] and in data set [4] was above 100 µM each time.
For the molecule `Cc1nc2onc(NC(=O)Cc3ccc(OC(F)(F)F)cc3)c2c(C)c1Cl` [Compound 19, N-(5-Chloro-4,6-dimethylisoxazolo[5,4-b]pyridin-3-yl)-2-(4-(trifluoromethoxy)phenyl)acetamide], the IC50 in data set [1] and in data set [4] was above 100 µM in each case.
Consider `Cc1nc2onc(NC(=O)Nc3ccc(OC(F)(F)F)cc3)c2c(C)c1Cl` [Compound 2, 1-(5-Chloro-4,6-dimethylisoxazolo[5,4-b]pyridin-3-yl)-3-(4-(trifluoromethoxy)phenyl)urea], for which the 50% inhibitory concentration (IC50) in data set [1] and in data set [4] was above 100 µM in each case.
With `Cc1nc2onc(NC(=O)Nc3cccc(OC(F)(F)F)c3)c2c(C)c1Cl` [Compound 10, 1-(5-Chloro-4,6-dimethylisoxazolo[5,4-b]pyridin-3-yl)-3-(3-(trifluoromethoxy)phenyl)urea], the 50% inhibitory concentration (IC50) in data set [1] and in data set [4] was above 100 µM each time.
Regarding `COc1cccc(NC(=O)Nc2noc3nc(C)c(Cl)c(C)c23)c1` [Compound 12, 1-(5-Chloro-4,6-dimethylisoxazolo[5,4-b]pyridin-3-yl)-3-(3-methoxyphenyl)urea], the IC50 in data set [1] and in data set [4] was above 100 µM throughout.
For `Cc1nc2onc(NC(=O)Nc3ccccc3C(F)(F)F)c2c(C)c1Cl` [Compound 14, 1-(5-Chloro-4,6-dimethylisoxazolo[5,4-b]pyridin-3-yl)-3-(2-(trifluoromethyl)phenyl)urea], the IC50 in data set [1] and in data set [4] was above 100 µM each time.
For `Cc1nc2onc(NC(=O)Nc3ccccc3OC(F)(F)F)c2c(C)c1Cl` [Compound 9, 1-(5-Chloro-4,6-dimethylisoxazolo[5,4-b]pyridin-3-yl)-3-(2-(trifluoromethoxy)phenyl)urea], the IC50 in data set [1] and in data set [4] was above 100 µM in each case.
On to `Cc1nc2onc(NC(=O)Nc3ccc(Cl)cc3)c2c(C)c1Cl` [Compound 8, 1-(5-Chloro-4,6-dimethylisoxazolo[5,4-b]pyridin-3-yl)-3-(4-chlorophenyl)urea], for which the IC50 in data set [1] and in data set [4] was above 100 µM in each case.
Regarding `Cc1nc2onc(NC(=O)Nc3ccccc3)c2c(C)c1Cl` [Compound 17, 1-(5-Chloro-4,6-dimethylisoxazolo[5,4-b]pyridin-3-yl)-3-phenylurea], the IC50 in data set [1] is 10 to 100 µM; in data set [4], above 100 µM.
On to `COc1ccc(NC(=O)Nc2noc3nc(C)c(Cl)c(C)c23)cc1` [Compound 13, 1-(5-Chloro-4,6-dimethylisoxazolo[5,4-b]pyridin-3-yl)-3-(4-methoxyphenyl)urea], for which the IC50 in data set [1] and in data set [4] was above 100 µM each time.
In the case of `COc1ccccc1NC(=O)Nc1noc2nc(C)c(Cl)c(C)c12` [Compound 11, 1-(5-Chloro-4,6-dimethylisoxazolo[5,4-b]pyridin-3-yl)-3-(2-methoxyphenyl)urea], the concentration for half-maximal inhibition (IC50) in data set [1] is 10 to 100 µM; in data set [4] it was above 100 µM.
For `Cc1nc2onc(N)c2c(C)c1Cl` [Compound 1, 5-Chloro-4,6-dimethylisoxazolo[5,4-b]pyridin-3-amine], the half-inhibitory concentration (IC50) in data set [3] and in data set [4] was above 100 µM each time.
For the molecule `Cc1nc2onc(NC(=O)Cc3ccccc3)c2c(C)c1Cl` [Compound 18, N-(5-Chloro-4,6-dimethylisoxazolo[5,4-b]pyridin-3-yl)-2-phenylacetamide], the IC50 in data set [1] is above 100 µM.
Regarding `Cc1nc2onc(NC(=O)Nc3cccc(C(F)(F)F)c3)c2c(C)c1Cl` [Compound 15, 1-(5-Chloro-4,6-dimethylisoxazolo[5,4-b]pyridin-3-yl)-3-(3-(trifluoromethyl)phenyl)urea], the IC50 in data set [1] was above 100 µM; in data set [2], 10 to 100 µM; in data set [3], above 100 µM; in data set [4], above 100 µM.
Take `Cc1nc2onc(NC(=O)Nc3ccc(C(F)(F)F)cc3)c2c(C)c1Cl` [Compound 16, 1-(5-Chloro-4,6-dimethylisoxazolo[5,4-b]pyridin-3-yl)-3-(4-(trifluoromethyl)phenyl)urea]: the IC50 in data set [1] and in data set [4] was above 100 µM in each case.
`CC(=O)Nc1noc2nc(C)c(Cl)c(C)c12` [Compound 20, N-(5-Chloro-4,6-dimethylisoxazolo[5,4-b]pyridin-3-yl)acetamide]: the IC50 in data set [1] and in data set [4] was above 100 µM throughout.
Take `Cc1nc2onc(NC(=O)Nc3cccc(Cl)c3)c2c(C)c1Cl` [Compound 7, 1-(5-Chloro-4,6-dimethylisoxazolo[5,4-b]pyridin-3-yl)-3-(3-chlorophenyl)urea]: the IC50 in data set [1] and in data set [4] was above 100 µM throughout.
Regarding `Cc1nc2onc(NC(=O)Nc3ccc(C#N)cc3)c2c(C)c1Cl` [Compound 3, 1-(5-chloro-4,6-dimethylisoxazolo[5,4-b]pyridin-3-yl)-3-(4-cyanophenyl)urea], the figures for the half-maximal inhibitory concentration (IC50) in data set [1] and in data set [4] were 10 to 100 µM and above 100 µM, respectively.
